{"source": "patent US20140315850A1", "about": "“2',3'-Dideoxy-2'-alpha-Fluoro-2'-beta-C-Methylnucleosides and Prodrugs Thereof” (Nanjing Molecular Research, Inc., priority 2011, published 2014)", "key": {"[1]": {"tested_on": "Huh-7 cell line (LTR-luc)", "experiment": "Cytotoxicity assay (LTR-luc luciferase reporter)", "assay_type": "cell-based, human", "settings": "in vitro", "experimental": "(§1) The anti-HCV activity and cytotoxicity of compounds disclosed herein were evaluated following patent method (WO/2007/027248).\n(§2) The anti-HCV activity and toxicity of the exemplary compounds can be tested in two biological assays—a cell-based HCV replicon assay and cytotoxicity assay (WO 2007/027248).\n(§3) II. Cytotoxicity Assay A Huh-7 cell line carrying a luciferase reporter gene (driven by a HIV LTR promoter) stably integrated into the chromosome was used to analyze the cytotoxic effect of the selected compounds. This cell line (LTR-luc) was maintained in DMEM medium with 10% FBS. Design of the cytotoxicity assay was similar to that of the HCV replicon assay. Reduction of luciferase activity in the treated cells correlated with the cytotoxic effect of the test compound and was used to calculate the CC50 value (concentration that inhibited cell growth by 50%)."}, "[2]": {"experiment": "Cytotoxicity assay (LTR-luc luciferase reporter)", "assay_type": "cell-based, human", "settings": "human; Huh-7 LTR-luc cells, luciferase activity; read-out: CC50 (concentration of drug inhibiting cellular growth by 50%)", "experimental": "as §1, §2, §3"}, "[3]": {"tested_on": "HCV subgenomic genotype 1b replicon", "experiment": "cell-based HCV replicon assay (luciferase reporter)", "parameters": "species or system hepatitis C virus (HCV)", "settings": "for EC50: Hepatitis C virus, Huh-7 cells, genotype 1b replicon luc-ubi-neo, 48 h incubation, luciferase activity, read-out: EC50 (concentration of drug inhibiting HCV by 50%); for anti-HCV activity (in words): replicon assay, genotype 1b", "experimental": "as §1, §2\nA human hepatoma cell line (Huh-7) containing replicating HCV subgenomic genotype 1b replicon with a luciferase reporter gene (luc-ubi-neo) was used to evaluate anti-HCV activity of the compounds. In this assay, the level of luciferase signal correlates with the viral RNA replication directly. The HCV replicon-reporter cell line (NK/luc-ubi-neo) was cultured in DMEM medium supplemented with 10% fetal bovine serum and 0.5 mg/ml Geneticin (G418). Cells were maintained in a subconfluent state to ensure high levels of HCV replicon RNA synthesis.\nTo evaluate the antiviral activity of compounds, serial dilutions were prepared with concentrations ranging from 0.14 to 300 μM. Diluted compounds were transferred to a 96-well plate followed by the addition of replicon cells (6000 cells per well). Cells were incubated with the compounds for 48 h after which luciferase activity was measured. Reduction of luciferase signal reflected the decrease of HCV replicon RNA in the treated cells and used to determine the EC50 value (concentration which yielded a 50% reduction in luciferase activity)."}}, "data": [{"smiles": "COC(=O)[C@H](C)NP(=O)(OCC1C[C@@](C)(F)C(n2cnc3c(OC)nc(N)nc32)O1)Oc1ccccc1", "note": "(some centres unmarked) [Compound 18]", "values": [{"measurement": "cytotoxicity (in words)", "setting": "[1]", "value": "without significant cytotoxicity"}, {"measurement": "CC50", "setting": "[2]", "value": "> 100", "unit": "µM"}, {"measurement": "EC50", "setting": "[3]", "value": "< 1", "unit": "µM"}, {"measurement": "anti-HCV activity (in words)", "setting": "[3]", "value": "potent anti-HCV activity"}]}, {"smiles": "COc1nc(N)nc2c1ncn2C1OC(COP(=O)(NCc2ccccc2)OCc2ccccc2C)C[C@@]1(C)F", "note": "(some centres unmarked) [Compound 17]", "values": [{"measurement": "cytotoxicity (in words)", "setting": "[1]", "value": "without significant cytotoxicity"}, {"measurement": "CC50", "setting": "[2]", "value": 52.2, "unit": "µM"}, {"measurement": "EC50", "setting": "[3]", "value": "< 1", "unit": "µM"}, {"measurement": "anti-HCV activity (in words)", "setting": "[3]", "value": "potent anti-HCV activity"}]}, {"smiles": "COc1nc(N)nc2c1ncn2C1OC(CO)C[C@@]1(C)F", "note": "(some centres unmarked) [Compound 11]", "values": [{"measurement": "CC50", "setting": "[2]", "value": "> 100", "unit": "µM"}, {"measurement": "EC50", "setting": "[3]", "value": "> 100", "unit": "µM"}]}, {"smiles": "COc1nc(N)nc2c1ncn2C1OC(CO[P@@](=O)(N[C@@H](C)C(=O)OC2CCCC2)Oc2ccccc2)C[C@@]1(C)F", "note": "(some centres unmarked) [Compound 25]", "values": [{"measurement": "cytotoxicity (in words)", "setting": "[1]", "value": "without significant cytotoxicity"}, {"measurement": "CC50", "setting": "[2]", "value": "> 100", "unit": "µM"}, {"measurement": "EC50", "setting": "[3]", "value": 0.58, "unit": "µM"}, {"measurement": "anti-HCV activity (in words)", "setting": "[3]", "value": "potent anti-HCV activity"}]}]}
